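Method: 48-hour compound exposure of cells in 96-well plates, five concentrations, linear interpolation of endpoints. TGI marks complete inhibition of growth.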

For the first assay, the system named is HT29 colon. As to the kind of experiment: NCI-60 cell line screen, 48 h.
Take `c1c(N2CCOCC2)ssc1=[N+]1CCOCC1`: the TGI was over 100 µM.

`Cc1nnc2n1-c1ccccc1N(Cc1ccccc1)CC2` yielded a TGI of over 100 µM.

`CC(C)(C)c1cc(/C=C2/NC(=O)NC2=O)cc(C(C)(C)C)c1O` had a TGI of 31.7 µM.

In turn, `Cc1cnc2[nH]c(-c3cccc(F)c3)cc(=O)c2c1` returned a TGI of 0.806 µM.

Compound `O=C(/C=C\Nc1ccccc1O)C(F)(F)F` had a TGI of over 100 µM.

In turn, `CC1(C)OC[C@@H](C[C@H](O)COCc2ccccc2)O1` had a TGI of over 100 µM.

As to `NC(N)=NS(=O)(=O)c1ccc(NC(=O)c2cccc3c(NNc4ccc(S(N)(=O)=O)cc4)c4ccccc4nc23)cc1`, the TGI is over 100 µM.

With `Nc1nncc2[nH]cnc12`, the TGI was over 100 µM.

`S=c1[nH]nc(Cn2c3ccc(Br)cc3c3nc4ccccc4nc32)n1C1CCCCC1` registered a TGI of over 100 µM.

`COc1ccc2c(c1)-c1c(c3cc(OC)ccc3n1CCN(C)C)CC2` came in with a TGI of 19.1 µM.

Compound `CCCCCCc1cc2cc(-c3csc(-c4ccc(OC)cc4)n3)c(=O)oc2cc1O` had a TGI of over 100 µM.

With `COc1ccc(C2=C(Cl)C(=O)O/C2=C\c2ccc(OC)c(Br)c2)cc1Cl`, the TGI is over 100 µM.

For `CNC(=S)NNc1ncnc2c1c(-c1ccc(Cl)cc1)cn2-c1ccc(C)cc1`, the TGI was determined as 29.8 µM.

The compound `CCCCCCCCCCCCNC(=O)CCC(NC(=O)c1ccc(N(C)Cc2cnc3nc(N)nc(N)c3n2)cc1)C(=O)NCCCCCCCCCCCC` (stereo unspecified) came in with a TGI of over 100 µM.

For the compound `O=C1c2cccnc2S(=O)(=O)N1c1ccc([N+](=O)[O-])cc1`, the TGI is over 100 µM.

The subject of the next assay is K-562 leukemia. As to the kind of experiment: NCI-60 cell line screen, 48 h.
Regarding `O=CN1CCN(C(=O)c2ccco2)C1=S`, the TGI came out at 29.5 µM.

`CC(=O)C1(O)CCC2(O)C3(O)CC=C4CC(O)CCC4(C)C3CC(OC(=O)c3ccc(O)cc3)C12C` (stereo unspecified) showed a TGI of over 100 µM.

As for `Cn1c2c(c3ccccc31)CCN1C(=O)C34CCCC3CC21S4` (stereo unspecified), the TGI was over 100 µM.

`Clc1ccc(OCc2nnc(COc3ccc(OCc4nnc(COc5ccc(Cl)cc5Cl)o4)c(Cl)c3)o2)c(Cl)c1` registered a TGI of 53.3 µM.

On to `O=C1/C(=C/c2ccncc2)C(n2cccc2)c2c(Br)sc(Br)c21` (stereo unspecified), for which the TGI stood at 6.91 µM.

As to `COCC#C[C@@]1(O)CCCCC1CC(OC)OC` (stereo partly specified), the TGI was over 100 µM.

Take `C=C1CC(COc2ccc3c(C)c(C)c(=O)oc3c2C)(c2ccccc2)OC1=O` (stereo unspecified): the TGI came to 3.88 µM.

As for `CC(=O)OCC(=O)O[C@@H]1[C@H]2[C@@H](OC(=O)c3ccccc3)[C@@H](C)C[C@]2(O)[C@H](OC(C)=O)[C@@]2(C)C[C@]1(OC(C)=O)C[C@H]1C(=O)C(C)(C)[C@@H](OC(C)=O)[C@@H]12`, the TGI was over 25 µM.

With `O=C(Sc1c(-c2ccccc2)c(=O)n(-c2ccccc2)c(=S)n1-c1ccccc1)c1ccco1`, the TGI is over 100 µM.

In the case of `Cn1nc2c(c1N)Cc1c(nn(C)c1N)-c1ccccc1-2`, the TGI was over 100 µM.

`COC(=O)C1=C(C(=O)OC)SC(=C2SC3=C(SC(=C4SCCS4)S3)S2)S1` registered a TGI of over 100 µM.

`CCC(=O)Nc1ccc(NS(=O)(=O)c2ccc(Cl)cc2)cc1` yielded a TGI of over 100 µM.

Consider `c1c(N2CCOCC2)ssc1=[N+]1CCOCC1`, for which the TGI is over 100 µM.

In turn, `Cc1nnc2n1-c1ccccc1N(Cc1ccccc1)CC2` yielded a TGI of over 100 µM.

`CC(C)(C)c1cc(/C=C2/NC(=O)NC2=O)cc(C(C)(C)C)c1O` showed a TGI of 33.1 µM.

`Cc1cnc2[nH]c(-c3cccc(F)c3)cc(=O)c2c1` displayed a TGI of over 100 µM.

In turn, `O=C(/C=C\Nc1ccccc1O)C(F)(F)F` returned a TGI of over 100 µM.

For `CC1(C)OC[C@@H](C[C@H](O)COCc2ccccc2)O1`, the TGI is over 100 µM.

Compound `NC(N)=NS(=O)(=O)c1ccc(NC(=O)c2cccc3c(NNc4ccc(S(N)(=O)=O)cc4)c4ccccc4nc23)cc1` showed a TGI of 55 µM.

On to `Nc1nncc2[nH]cnc12`, for which the TGI is over 100 µM.

On to `S=c1[nH]nc(Cn2c3ccc(Br)cc3c3nc4ccccc4nc32)n1C1CCCCC1`, for which the TGI is over 100 µM.

On to `COc1ccc2c(c1)-c1c(c3cc(OC)ccc3n1CCN(C)C)CC2`, for which the TGI stood at 26.5 µM.

As to `CCCCCCc1cc2cc(-c3csc(-c4ccc(OC)cc4)n3)c(=O)oc2cc1O`, the TGI is over 100 µM.

As to `COc1ccc(C2=C(Cl)C(=O)O/C2=C\c2ccc(OC)c(Br)c2)cc1Cl`, the TGI is over 100 µM.

The compound `CNC(=S)NNc1ncnc2c1c(-c1ccc(Cl)cc1)cn2-c1ccc(C)cc1` came in with a TGI of over 100 µM.

In turn, `CCCCCCCCCCCCNC(=O)CCC(NC(=O)c1ccc(N(C)Cc2cnc3nc(N)nc(N)c3n2)cc1)C(=O)NCCCCCCCCCCCC` (stereo unspecified) came in with a TGI of 62.6 µM.

In the next assay the test system is NCI-H23 lung. As to the kind of experiment: NCI-60 cell line screen, 48 h.
Compound `O=CN1CCN(C(=O)c2ccco2)C1=S` came in with a TGI of 40.4 µM.

`CC(=O)C1(O)CCC2(O)C3(O)CC=C4CC(O)CCC4(C)C3CC(OC(=O)c3ccc(O)cc3)C12C` (stereo unspecified) showed a TGI of over 100 µM.

The compound `Cn1c2c(c3ccccc31)CCN1C(=O)C34CCCC3CC21S4` (stereo unspecified) came in with a TGI of over 100 µM.

`Clc1ccc(OCc2nnc(COc3ccc(OCc4nnc(COc5ccc(Cl)cc5Cl)o4)c(Cl)c3)o2)c(Cl)c1` had a TGI of over 100 µM.

With `O=C1/C(=C/c2ccncc2)C(n2cccc2)c2c(Br)sc(Br)c21` (stereo unspecified), the TGI stood at 11.6 µM.

`COCC#C[C@@]1(O)CCCCC1CC(OC)OC` (stereo partly specified) yielded a TGI of over 100 µM.

`C=C1CC(COc2ccc3c(C)c(C)c(=O)oc3c2C)(c2ccccc2)OC1=O` (stereo unspecified) displayed a TGI of 4.64 µM.

For `CC(=O)OCC(=O)O[C@@H]1[C@H]2[C@@H](OC(=O)c3ccccc3)[C@@H](C)C[C@]2(O)[C@H](OC(C)=O)[C@@]2(C)C[C@]1(OC(C)=O)C[C@H]1C(=O)C(C)(C)[C@@H](OC(C)=O)[C@@H]12`, the TGI was over 25 µM.

The compound `O=C(Sc1c(-c2ccccc2)c(=O)n(-c2ccccc2)c(=S)n1-c1ccccc1)c1ccco1` came in with a TGI of over 100 µM.

For `Cn1nc2c(c1N)Cc1c(nn(C)c1N)-c1ccccc1-2`, the TGI was over 100 µM.

`COC(=O)C1=C(C(=O)OC)SC(=C2SC3=C(SC(=C4SCCS4)S3)S2)S1` registered a TGI of over 100 µM.

The compound `CCC(=O)Nc1ccc(NS(=O)(=O)c2ccc(Cl)cc2)cc1` registered a TGI of over 100 µM.

The compound `c1c(N2CCOCC2)ssc1=[N+]1CCOCC1` yielded a TGI of over 100 µM.

Take `Cc1nnc2n1-c1ccccc1N(Cc1ccccc1)CC2`: the TGI was over 100 µM.

`CC(C)(C)c1cc(/C=C2/NC(=O)NC2=O)cc(C(C)(C)C)c1O` returned a TGI of 30.6 µM.

In the case of `Cc1cnc2[nH]c(-c3cccc(F)c3)cc(=O)c2c1`, the TGI worked out at 2.03 µM.

`O=C(/C=C\Nc1ccccc1O)C(F)(F)F` registered a TGI of over 100 µM.

In turn, `CC1(C)OC[C@@H](C[C@H](O)COCc2ccccc2)O1` gave a TGI of over 100 µM.

`NC(N)=NS(=O)(=O)c1ccc(NC(=O)c2cccc3c(NNc4ccc(S(N)(=O)=O)cc4)c4ccccc4nc23)cc1`: the TGI was over 100 µM.

In turn, `S=c1[nH]nc(Cn2c3ccc(Br)cc3c3nc4ccccc4nc32)n1C1CCCCC1` displayed a TGI of 42.1 µM.

In turn, `COc1ccc2c(c1)-c1c(c3cc(OC)ccc3n1CCN(C)C)CC2` had a TGI of 29.6 µM.

`COc1ccc(C2=C(Cl)C(=O)O/C2=C\c2ccc(OC)c(Br)c2)cc1Cl`: the TGI was 32 µM.

`CNC(=S)NNc1ncnc2c1c(-c1ccc(Cl)cc1)cn2-c1ccc(C)cc1`: the TGI was 28.2 µM.

For the compound `CCCCCCCCCCCCNC(=O)CCC(NC(=O)c1ccc(N(C)Cc2cnc3nc(N)nc(N)c3n2)cc1)C(=O)NCCCCCCCCCCCC` (stereo unspecified), the TGI is over 100 µM.

On to `O=C1c2cccnc2S(=O)(=O)N1c1ccc([N+](=O)[O-])cc1`, for which the TGI was over 100 µM.

The values above are taken from PubChem BioAssay (NCI).
